Assay results reported in patent publication EP4273147A1, “SUBSTITUTED SPIROLACTAMS, SALTS THEREOF AND THEIR USE AS HERBICIDALLY ACTIVE SUBSTANCES” (Bayer Aktiengesellschaft, priority 2022, dated 2023).

What was measured:
POAAN = assay: Herbicidal pre-emergence action (Table A7); type: in vivo, Poa annua
In short: (§1)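 Pots: sandy loam. Sowing: one mono- and one dicot weed species together per pot. Seeds covered with soil.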

ALOMY [1] = assay: Herbicidal pre-emergence action (Table A9); type: in vivo, Alopecurus myosuroides; conditions: application rate 1280 g/ha; visual grading after ca. 3 weeks
In short: as §1

LOLRI [2] = assay: Herbicidal pre-emergence action (Table A3); type: in vivo, Lolium rigidum; conditions: application rate 320 g/ha; visual grading after ca. 3 weeks
In short: as §1

SETVI [3] = assay: Herbicidal post-emergence action (Table B8); type: in vivo, Setaria viridis
In short: (§2)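 Greenhouse pot test in sandy loam; weeds sown, treated post-emergence at one-leaf stage 2–3 weeks after sowing. Activity rated visually about 3 weeks later versus untreated controls, 100% = plants dead, 0% = like controls.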

ECHCG [4] = assay: Herbicidal post-emergence action (Table B3); type: in vivo, Echinochloa crus-galli; conditions: rated visually after about 3 weeks
In short: as §2

ECHCG [5] = assay: Herbicidal pre-emergence action (Table A2); type: in vivo, Echinochloa crus-galli; conditions: visual grading after ca. 3 weeks
In short: as §1

ALOMY [6] = assay: Herbicidal post-emergence action (Table B2); type: in vivo, Alopecurus myosuroides; conditions: application rate 1280 g/ha; rated visually after about 3 weeks
Description: (§3) Seeds of mono- and dicotyledonous weed plants were placed in plastic pots in sandy loam soil (doubly sown with in each case one species of mono- or dicotyledonous weed plants per pot), covered with soil and cultivated in a greenhouse under controlled growth conditions. 2 to 3 weeks after sowing, the test plants were treated at the one-leaf stage. […] After the test plants had been kept in the greenhouse under optimum growth conditions for about 3 weeks, the activity of the preparations was rated visually in comparison to untreated controls. For example, 100% activity = the plants have died, 0% activity = like control plants.

MATIN [7] = assay: Herbicidal pre-emergence action (Table A4); type: in vivo, Matricaria inodora; conditions: visual grading after ca. 3 weeks
In short: as §1

VERPE [8] = assay: Herbicidal post-emergence action (Table B10); type: in vivo, Veronica persica; conditions: application rate 320 g/ha
In short: as §2

SETVI [9] = assay: Herbicidal pre-emergence action (Table A5); type: in vivo, Setaria viridis; conditions: application rate 320 g/ha; visual grading after ca. 3 weeks
In short: as §1

AMARE = assay: Herbicidal pre-emergence action (Table A8); type: in vivo, Amaranthus retroflexus; conditions: application rate 1280 g/ha; visual grading after ca. 3 weeks vs untreated controls (100% = plants have died off, 0% = as control plants)
In short: as §1

ORYZA [10] = assay: Pre-emergence effects on crop plants (Table D3); conditions: crop plant; application rate 80 g/ha; visual grading after ca. 3 weeks
VERPE [11] = assay: Herbicidal pre-emergence action (Table A11); type: in vivo, Veronica persica; conditions: application rate 1280 g/ha; visual grading after ca. 3 weeks
In short: as §1

ALOMY [12] = assay: Herbicidal post-emergence action, section E (Table E2); type: in vivo, Alopecurus myosuroides; conditions: application rate 320 g/ha; assessed visually after ca. 3 weeks
Text: (§4) 2 to 3 weeks after sowing, the test plants were sprayed in the single-leaf stage.

TRZAS [13] = assay: Pre-emergence effects on crop plants (Table D2); type: in vivo, Triticum aestivum; conditions: crop plant; application rate 80 g/ha; visual grading after ca. 3 weeks
ABUTH [14] = assay: Herbicidal pre-emergence action (Table A1); type: in vivo, Abutilon theophrasti; conditions: application rate 1280 g/ha; visual grading after ca. 3 weeks vs untreated controls (100% = plants have died off, 0% = as control plants)
In short: as §1

ORYZA [15] = assay: Post-emergence effects on crop plants (Table F3); type: in vivo, Oryza sativa; conditions: application rate 320 g/ha, crop plant ORYZA
Text: as §4

ECHCG [16] = assay: Herbicidal pre-emergence action, section C (Table C6); type: in vivo, Echinochloa crus-galli; conditions: application rate 80 g/ha; visual grading after ca. 3 weeks
Description: (§5) Seeds of mono- and dicotyledonous weed plants and crop plants were sown, in plastic or organic planting pots, in sandy loam and covered with soil. The compounds according to the invention, formulated in the form of wettable powders (WP) or as emulsifiable concentrates (EC), were applied to the surface of the covering soil as aqueous suspension or emulsion, with the addition of 0.5% of an additive, at an application rate of 600 1 of water/ha (converted). Following treatment, the pots were placed in a greenhouse and kept under optimum growth conditions for the test plants.

MATIN [17] = assay: Herbicidal post-emergence action (Table B6); type: in vivo, Matricaria inodora; conditions: application rate 1280 g/ha; rated visually after about 3 weeks
In short: as §2

VIOTR [18] = assay: Herbicidal pre-emergence action, section C (Table C12); type: in vivo, Viola tricolor; conditions: application rate 80 g/ha; visual grading after ca. 3 weeks
BRSNW [19] = assay: Post-emergence effects on crop plants (Table F5); type: in vivo, Brassica napus; conditions: application rate 80 g/ha, crop plant BRSNW
Text: as §4

ZEAMX [20] = assay: Pre-emergence effects on crop plants (Table D1); type: in vivo, Zea mays; conditions: crop plant; application rate 320 g/ha; visual grading after ca. 3 weeks
DIGSA [21] = assay: Herbicidal pre-emergence action, section C (Table C5); type: in vivo, Digitaria sanguinalis; conditions: application rate 80 g/ha; visual grading after ca. 3 weeks
LOLRI [22] = assay: Herbicidal pre-emergence action, section C (Table C7); type: in vivo, Lolium rigidum; conditions: application rate 320 g/ha; visual grading after ca. 3 weeks
LOLRI [23] = assay: Herbicidal post-emergence action (Table B5); type: in vivo, Lolium rigidum; conditions: application rate 1280 g/ha; rated visually after about 3 weeks
Description: as §3

GLXMA = assay: Pre-emergence effects on crop plants (Table D4); type: in vivo, Glycine max; conditions: crop plant; application rate 320 g/ha; visual grading after ca. 3 weeks
KCHSC = assay: Herbicidal pre-emergence action (Table A10); type: in vivo, Kochia scoparia; conditions: application rate 320 g/ha; visual grading after ca. 3 weeks
In short: as §1

MATIN [24] = assay: Herbicidal pre-emergence action, section C (Table C8); type: in vivo, Matricaria inodora; conditions: application rate 320 g/ha; visual grading after ca. 3 weeks
BRSNW [25] = assay: Pre-emergence effects on crop plants (Table D5); type: in vivo, Brassica napus; conditions: crop plant; application rate 80 g/ha; visual grading after ca. 3 weeks
ALOMY [26] = assay: Herbicidal pre-emergence action, section C (Table C2); type: in vivo, Alopecurus myosuroides; conditions: application rate 320 g/ha; visual grading after ca. 3 weeks
POLCO = assay: Herbicidal pre-emergence action, section C (Table C9); type: in vivo, Polygonum convolvulus; conditions: application rate 320 g/ha; visual grading after ca. 3 weeks
VIOTR [27] = assay: Herbicidal post-emergence action, section E (Table E10); type: in vivo, Viola tricolor; conditions: application rate 320 g/ha; assessed visually after ca. 3 weeks
Text: as §4

ABUTH [28] = assay: Herbicidal pre-emergence action, section C (Table C1); type: in vivo, Abutilon theophrasti; conditions: application rate 320 g/ha; visual grading after ca. 3 weeks
SETVI [29] = assay: Herbicidal pre-emergence action, section C (Table C10); type: in vivo, Setaria viridis; conditions: application rate 80 g/ha; visual grading after ca. 3 weeks
ZEAMX [30] = assay: Post-emergence effects on crop plants (Table F1); type: in vivo, Zea mays; conditions: application rate 320 g/ha, crop plant ZEAMX
Text: as §4

VERPE [31] = assay: Herbicidal pre-emergence action, section C (Table C11); type: in vivo, Veronica persica; conditions: application rate 320 g/ha; visual grading after ca. 3 weeks
Description: as §5

TRZAS [32] = assay: Post-emergence effects on crop plants (Table F2); type: in vivo, Triticum aestivum; conditions: application rate 320 g/ha, crop plant TRZAS
Text: as §4

DIGSA [33] = assay: Herbicidal pre-emergence action (Table A12); type: in vivo, Digitaria sanguinalis; conditions: application rate 320 g/ha; visual grading after ca. 3 weeks
In short: as §1

STEME = assay: Herbicidal pre-emergence action (Table A6); type: in vivo, Stellaria media; conditions: application rate 320 g/ha; visual grading after ca. 3 weeks
In short: as §1

ECHCG [34] = assay: Herbicidal post-emergence action, section E (Table E5); type: in vivo, Echinochloa crus-galli; conditions: application rate 320 g/ha; assessed visually after ca. 3 weeks
Text: as §4

## O=C1N(Cc2ccccc2Cl)CCCC12CCCN(Cc1cccc(F)c1F)C2=O (racemic) [I-018]
POAAN; pre-emergence, 1290 g/ha, 504 h
  pre-emergence activity against POAAN: 100%
ALOMY [1]
  pre-emergence activity against ALOMY: 90%
LOLRI [2]
  pre-emergence activity against LOLRI: 100%
SETVI [3]; application rate 320 g/ha
  post-emergence activity against SETVI: 90%
ECHCG [4]; application rate 320 g/ha
  post-emergence activity against ECHCG: 90%
ECHCG [5]; application rate 320 g/ha
  pre-emergence activity against ECHCG: 100%
ALOMY [6]
  post-emergence activity against ALOMY: 90%
MATIN [7]; application rate 1280 g/ha
  pre-emergence activity against MATIN: 90%
VERPE [8]
  post-emergence activity against VERPE: 90%
SETVI [9]
  pre-emergence activity against SETVI: 90%

## O=C1N(Cc2ccccc2F)CCC12CCCN(Cc1c(F)cccc1F)C2=O (racemic) [I-024]
AMARE
  pre-emergence activity against AMARE: 90%
ORYZA [10]
  pre-emergence activity against ORYZA: 0%
POAAN; application rate 320 g/ha, visual grading after ca. 3 weeks
  pre-emergence activity against POAAN: 100%
VERPE [11]
  pre-emergence activity against VERPE: 90%
ALOMY [12]
  post-emergence activity against ALOMY: 80%
TRZAS [13]
  pre-emergence activity against TRZAS: 0%
ABUTH [14]
  pre-emergence activity against ABUTH: 90%
ORYZA [15]
  post-emergence activity against ORYZA: 0%
ECHCG [16]
  pre-emergence activity against ECHCG: 100%
MATIN [17]
  post-emergence activity against MATIN: 90%
ALOMY [1]
  pre-emergence activity against ALOMY: 90%
VIOTR [18]
  pre-emergence activity against VIOTR: 90%
LOLRI [2]
  pre-emergence activity against LOLRI: 100%
BRSNW [19]
  post-emergence activity against BRSNW: 0%
ZEAMX [20]
  pre-emergence activity against ZEAMX: 0%
DIGSA [21]
  pre-emergence activity against DIGSA: 80%
SETVI [3]; application rate 1280 g/ha
  post-emergence activity against SETVI: 90%
LOLRI [22]
  pre-emergence activity against LOLRI: 90%
ECHCG [4]; application rate 1280 g/ha
  post-emergence activity against ECHCG: 90%
LOLRI [23]
  post-emergence activity against LOLRI: 90%
GLXMA
  pre-emergence activity against GLXMA: 0%
KCHSC
  pre-emergence activity against KCHSC: 90%
ECHCG [5]; application rate 1280 g/ha
  pre-emergence activity against ECHCG: 100%
MATIN [24]
  pre-emergence activity against MATIN: 90%
BRSNW [25]
  pre-emergence activity against BRSNW: 20%
ALOMY [26]
  pre-emergence activity against ALOMY: 90%
MATIN [7]; application rate 320 g/ha
  pre-emergence activity against MATIN: 90%
POLCO
  pre-emergence activity against POLCO: 90%
VIOTR [27]
  post-emergence activity against VIOTR: 80%
ABUTH [28]
  pre-emergence activity against ABUTH: 90%
SETVI [29]
  pre-emergence activity against SETVI: 100%
ZEAMX [30]
  post-emergence activity against ZEAMX: 0%
SETVI [9]
  pre-emergence activity against SETVI: 100%
VERPE [31]
  pre-emergence activity against VERPE: 90%
TRZAS [32]
  post-emergence activity against TRZAS: 0%
DIGSA [33]
  pre-emergence activity against DIGSA: 100%
STEME
  pre-emergence activity against STEME: 90%
ECHCG [34]
  post-emergence activity against ECHCG: 90%
